The test system of one experiment is Lymphome. Nature of the experiment: Effect on lymphomas.
Experiment [1] concerns BxPC3 (pankreatisches Adenokarzinom). Nature of the experiment: MTT test, triplicate, two-fold dilutions. The following applies: Homo sapiens, BXPC-3, read-out: IC50 BxPC3. Type of experiment: cell-based. As to the method:
(§1) Die Silan wurden in Ethanol aufgelöst und in Zellkulturmedien in Konzentrationen von bis zu 500 µg/ml resuspendiert. Es wurden MTT Tests in dreifacher Ausführung durchgeführt, für welche doppelte Lösungen (7 Schritte) und colo205 (Kofon-Karzinom), BxPC3 (pankreatisches Adenokarzinom) sowie T47D (Brustkrebs) benutzt wurden.
(Tetrazolium dyes change colour on reduction, which living cells bring about.)

The next experiment has as its system T47D (Brustkrebs). As to the kind of experiment: MTT test, triplicate, two-fold dilutions. The class given is cell-based. To be noted: Homo sapiens, T47D, read-out: IC50 T47D. The procedure: as §1
The next experiment concerns colo205 (Kofon-Karzinom). As to the kind of experiment: MTT test, triplicate, two-fold dilutions. Type of experiment: cell-based. To be noted: Homo sapiens, COLO 205, read-out: IC50 Colo205. The procedure:
as §1

For a further experiment, the system named is A431 Epidermalkarzinom. Nature of the experiment: MTT assay / EZ4U test, 4 days. The following applies: Homo sapiens, A-431, read-out: IC50 A431. The class given is cell-based. As to the method:
(§2) Die Silane 1, 5, 9, 10, 11, 13, 15, 16 wurden in Ethanol gelöst und in MTT Assays in einer anfänglichen Konzentration von 200 µg/ml (5 Lösungsschritte 200 - 12.5 µg/ml) verwendet. Die Platten wurde für eine Dauer.von 4 Tagen inkubiert und die Entwicklungsfähigkeit mithilfe des EZ4U Test bestimmt. Die IC50 Werte wurden ausgehend von Dosierungs-Reaktions-Linien berechnet Zelllinien: Colo 205 and HT29 - Kolonkarzinom; BxPC3 and MIAPaCa2 - Pankreaskrebs; CRO2B - karzinoid, A431 Epidermalkarzinom; normale Zellen: WI38 - humane embryonale Fibroblasten; NIH3T3 - mausartige Fibroblasten; IEC6 - mausartige Enterozyten.

In a further experiment the test system is BxPC3 - Pankreaskrebs. Nature of the experiment: MTT assay / EZ4U test, 4 days. Type of experiment: cell-based. To be noted: Homo sapiens, BXPC-3, read-out: IC50 BxPC3. As to the method:
as §2

In a further experiment the test system is CRO2B - karzinoid. Nature of the experiment: MTT assay / EZ4U test, 4 days. The class given is cell-based. To be noted: read-out: IC50 CR02B. As to the method: as §2
The next experiment relates to HT29 - Kolonkarzinom. Nature of the experiment: MTT assay / EZ4U test, 4 days. Type of experiment: cell-based. The following applies: Homo sapiens, HT-29, read-out: IC50 HT29. As to the method:
as §2

The test system of experiment [2] is IEC6 - mausartige Enterozyten. As to the kind of experiment: MTT assay / EZ4U test, 4 days. The class given is cell-based. The following applies: Rattus norvegicus, IEC-6, read-out: IC50 IEC6. The procedure: as §2
The next experiment has as its system MIAPaCa2 - Pankreaskrebs. As to the kind of experiment: MTT assay / EZ4U test, 4 days. The following applies: Homo sapiens, MIA PaCa-2, read-out: IC50 MlAPaCa2. Type of experiment: cell-based. The procedure:
as §2

Experiment [3] has as its system NIH3T3 - mausartige Fibroblasten. Nature of the experiment: MTT assay / EZ4U test, 4 days. The class given is cell-based. The following applies: Mus musculus, NIH3T3, read-out: IC50 NIH3T3. The procedure: as §2
Experiment [4] has as its system WI38 - humane embryonale Fibroblasten. Nature of the experiment: MTT assay / EZ4U test, 4 days. The class given is cell-based. To be noted: Homo sapiens, WI-38, read-out: IC50 WI38. As to the method:
as §2

In a further experiment the test system is Krebszellen. Nature of the experiment: Mean IC50 over all cancer cell lines. The class given is cell-based. To be noted: read-out: IC50 Krebszellen (Durchschnitt ± SD). As to the method: as §2
(§3) Mittelwerte-IC50 für alle Krebs- oder normalen Zelllinien: […]

A further experiment concerns Normale Zellen. As to the kind of experiment: Mean IC50 over all normal cell lines. Type of experiment: cell-based. To be noted: read-out: IC50 Normale Zellen (Durchschnitt ± SD). As to the method: as §2, §3
The next experiment has as its system Colo205 Kolonkarzinom. Nature of the experiment: subG1 apoptotic fraction, propidium iodide, flow cytometry. Type of experiment: cell-based. The following applies: 50 µg/ml, 4 Tage. As to the method: (§4) Die Zellen (IEC6 mausartige Enterozyten; Panc1 Pankreaskrebszellen; Colo205 Kolonkarzinom) wurden mit 50 µg/ml Silanen inkubiert und nach 4-tägiger Aussetzung auf DNA eingefärbt (Propidiumiodid). Die SubG1 Zellteilung wurde mittels Durchflusscytometrie bestimmt.
In general terms: In flow cytometry, cells or beads pass a laser one at a time.

For experiment [5], the system named is IEC6 mausartige Enterozyten. Described as above. The following applies: 50 µg/ml, 4 Tage. The class given is cell-based. As to the method: as §4
For experiment [6], the system named is Panc1 Pankreaskrebszellen. The experiment is described as above. Type of experiment: cell-based. To be noted: 50 µg/ml, 4 Tage. The procedure:
as §4

In brackets after ≈: the same amount, converted by molar mass. Numbered stars: 1 amine (or outer) side, 2 acyl side, 3 side chain; on linkers, the order of the positions; unused ones are H or OH. Bridge positions count the residues as written; N and C are the ends. Peptide text beside a SMILES is read from it. I, II: the chains in the order shown. X2 = c1ccc([Si](O[*:1])(O[*:2])c2ccccc2)cc1; X1 = C[Si](C)(O[*:1])O[*:2]

By IC50 is commonly meant the concentration that inhibits the measured activity by half.

Consider Diethyl bis(biphenylalanyl)silylester, for which, in the experiment with Lymphome, the “Wirkung auf Lymphome” value was “zeigen eine Wirkung”.

In the case of `N[C@@H](Cc1ccccc1)C(=O)N[C@@H](Cc1ccccc1)C(=O)N[C@@H](Cc1ccccc1)C(=O)N[C@@H](Cc1ccccc1)C(=O)N[C@@H](Cc1ccccc1)C(=O)N[C@@H](Cc1ccccc1)C(=O)N[C@@H](Cc1ccccc1)C(=O)O[Si](OC(=O)[C@H](Cc1ccccc1)NC(=O)[C@H](Cc1ccccc1)NC(=O)[C@H](Cc1ccccc1)NC(=O)[C@H](Cc1ccccc1)NC(=O)[C@H](Cc1ccccc1)NC(=O)[C@H](Cc1ccccc1)NC(=O)[C@@H](N)Cc1ccccc1)(c1ccccc1)c1ccccc1` [Diphenyl bis(heptaphenylalanyl)silylester] (I: H-FFFFFFF / II: H-FFFFFFF; linker I:C-II:C via X2), the “Wirkung auf Plasmozytome” value in the experiment on Plasmozytome was “zeigen eine Wirkung”.

On to `N[C@@H](Cc1ccccc1)C(=O)N[C@@H](Cc1ccccc1)C(=O)N[C@@H](Cc1ccccc1)C(=O)N[C@@H](Cc1ccccc1)C(=O)O[Si](OC(=O)[C@H](Cc1ccccc1)NC(=O)[C@H](Cc1ccccc1)NC(=O)[C@H](Cc1ccccc1)NC(=O)[C@@H](N)Cc1ccccc1)(c1ccccc1)c1ccccc1` [Diphenyl bis(tetraphenylalanyl)silylester], for which the “Wirkung auf Plasmozytome” value in the experiment with Plasmozytome is “zeigen eine Wirkung”.

Take `C[Si](C)(OC(=O)[C@H](Cc1ccccc1)NC(=O)[C@H](Cc1ccccc1)NC(=O)[C@H](Cc1ccccc1)NC(=O)[C@H](Cc1ccccc1)NC(=O)[C@H](Cc1ccccc1)NC(=O)[C@H](Cc1ccccc1)NC(=O)[C@H](Cc1ccccc1)NC(=O)[C@@H](N)Cc1ccccc1)OC(=O)[C@H](Cc1ccccc1)NC(=O)[C@H](Cc1ccccc1)NC(=O)[C@H](Cc1ccccc1)NC(=O)[C@H](Cc1ccccc1)NC(=O)[C@H](Cc1ccccc1)NC(=O)[C@H](Cc1ccccc1)NC(=O)[C@H](Cc1ccccc1)NC(=O)[C@@H](N)Cc1ccccc1` [Dimethyl bis(octaphenylalanyl)silylester] (I: H-FFFFFFFF / II: H-FFFFFFFF; linker I:C-II:C via X1): the “Wirkung auf Lymphome” value in the experiment with Lymphome is “zeigen eine Wirkung”.

In the case of `N[C@@H](Cc1ccccc1)C(=O)N[C@@H](Cc1ccccc1)C(=O)N[C@@H](Cc1ccccc1)C(=O)O[Si](OC(=O)[C@H](Cc1ccccc1)NC(=O)[C@H](Cc1ccccc1)NC(=O)[C@@H](N)Cc1ccccc1)(c1ccccc1)c1ccccc1` [Diphenyl bis(triphenylalanyl)silylester], the “Wirkung auf Plasmozytome” value in the experiment with Plasmozytome is given as “zeigen eine Wirkung”.

For `N[C@@H](Cc1ccccc1)C(=O)N[C@@H](Cc1ccccc1)C(=O)N[C@@H](Cc1ccccc1)C(=O)N[C@@H](Cc1ccccc1)C(=O)N[C@@H](Cc1ccccc1)C(=O)N[C@@H](Cc1ccccc1)C(=O)N[C@@H](Cc1ccccc1)C(=O)N[C@@H](Cc1ccccc1)C(=O)N[C@@H](Cc1ccccc1)C(=O)N[C@@H](Cc1ccccc1)C(=O)O[Si](OC(=O)[C@H](Cc1ccccc1)NC(=O)[C@H](Cc1ccccc1)NC(=O)[C@H](Cc1ccccc1)NC(=O)[C@H](Cc1ccccc1)NC(=O)[C@H](Cc1ccccc1)NC(=O)[C@H](Cc1ccccc1)NC(=O)[C@H](Cc1ccccc1)NC(=O)[C@H](Cc1ccccc1)NC(=O)[C@H](Cc1ccccc1)NC(=O)[C@@H](N)Cc1ccccc1)(c1ccccc1)c1ccccc1` [Diphenyl bis(decaphenylalanyl) silylester] (I: H-FFFFFFFFFF / II: H-FFFFFFFFFF; linker I:C-II:C via X2), in the experiment on Plasmozytome, the “Wirkung auf Plasmozytome” value is given as “zeigen eine Wirkung”.

As for `N[C@@H](Cc1ccccc1)C(=O)N[C@@H](Cc1ccccc1)C(=O)N[C@@H](Cc1ccccc1)C(=O)N[C@@H](Cc1ccccc1)C(=O)N[C@@H](Cc1ccccc1)C(=O)N[C@@H](Cc1ccccc1)C(=O)O[Si](OC(=O)[C@H](Cc1ccccc1)NC(=O)[C@H](Cc1ccccc1)NC(=O)[C@H](Cc1ccccc1)NC(=O)[C@H](Cc1ccccc1)NC(=O)[C@H](Cc1ccccc1)NC(=O)[C@@H](N)Cc1ccccc1)(c1ccccc1)c1ccccc1` [Diphenyl bis(hexaphenylalanyl)silylester] (I: H-FFFFFF / II: H-FFFFFF; linker I:C-II:C via X2), the “Wirkung auf Plasmozytome” value with Plasmozytome is given as “zeigen eine Wirkung”.

`N[C@@H](Cc1ccccc1)C(=O)N[C@@H](Cc1ccccc1)C(=O)N[C@@H](Cc1ccccc1)C(=O)N[C@@H](Cc1ccccc1)C(=O)N[C@@H](Cc1ccccc1)C(=O)N[C@@H](Cc1ccccc1)C(=O)N[C@@H](Cc1ccccc1)C(=O)N[C@@H](Cc1ccccc1)C(=O)N[C@@H](Cc1ccccc1)C(=O)O[Si](OC(=O)[C@H](Cc1ccccc1)NC(=O)[C@H](Cc1ccccc1)NC(=O)[C@H](Cc1ccccc1)NC(=O)[C@H](Cc1ccccc1)NC(=O)[C@H](Cc1ccccc1)NC(=O)[C@H](Cc1ccccc1)NC(=O)[C@H](Cc1ccccc1)NC(=O)[C@H](Cc1ccccc1)NC(=O)[C@@H](N)Cc1ccccc1)(c1ccccc1)c1ccccc1` [Diphenyl bis(nonaphenylalanyl)silylester] (I: H-FFFFFFFFF / II: H-FFFFFFFFF; linker I:C-II:C via X2): in the experiment with Plasmozytome, the “Wirkung auf Plasmozytome” value was “zeigen eine Wirkung”.

As for `N[C@@H](Cc1ccccc1)C(=O)N[C@@H](Cc1ccccc1)C(=O)N[C@@H](Cc1ccccc1)C(=O)N[C@@H](Cc1ccccc1)C(=O)N[C@@H](Cc1ccccc1)C(=O)N[C@@H](Cc1ccccc1)C(=O)N[C@@H](Cc1ccccc1)C(=O)N[C@@H](Cc1ccccc1)C(=O)O[Si](OC(=O)[C@H](Cc1ccccc1)NC(=O)[C@H](Cc1ccccc1)NC(=O)[C@H](Cc1ccccc1)NC(=O)[C@H](Cc1ccccc1)NC(=O)[C@H](Cc1ccccc1)NC(=O)[C@H](Cc1ccccc1)NC(=O)[C@H](Cc1ccccc1)NC(=O)[C@@H](N)Cc1ccccc1)(c1ccccc1)c1ccccc1` [Diphenyl bis(octaphenylalanyl)silylester] (I: H-FFFFFFFF / II: H-FFFFFFFF; linker I:C-II:C via X2), the “Wirkung auf Plasmozytome” value in the experiment with Plasmozytome is “zeigen eine Wirkung”.

As to `NCC(=O)NCC(=O)NCC(=O)NCC(=O)O[Si](OC(=O)CNC(=O)CNC(=O)CNC(=O)CN)(c1ccccc1)c1ccccc1` [Diphenyl bis(tetraglycyl)silylester], in the experiment on Plasmozytome, the “Wirkung auf Plasmozytome” value is given as “zeigen eine Wirkung”.

In the case of `CCCCCCCCCCCCCCCC(=O)O[Si](CC)(CC)OC(=O)CCCCCCCCCCCCCCC` [Si11, Di (hexadecanoyloxy) diethylsilan], the IC50 in experiment [1] amounted to 10 µg/mL (≈ 16.7 µM); in the experiment on T47D (Brustkrebs) it was 7 µg/mL (≈ 11.7 µM); with colo205 (Kofon-Karzinom), 300 µg/mL (≈ 502 µM); in the experiment on A431 Epidermalkarzinom, 21.9 µg/mL (≈ 36.7 µM); in the experiment on BxPC3 - Pankreaskrebs, 20 µg/mL (≈ 33.5 µM); with CRO2B - karzinoid, 18.9 µg/mL (≈ 31.7 µM). The IC50 was found to be 23.1 µg/mL (≈ 38.7 µM) in the experiment on HT29 - Kolonkarzinom; 21.2 µg/mL (≈ 35.5 µM) in [2]; 82.5 µg/mL (≈ 138 µM) in the experiment on MIAPaCa2 - Pankreaskrebs; 25 µg/mL (≈ 41.9 µM) in experiment [3]; 23.7 µg/mL (≈ 39.7 µM) in experiment [4]; 21.1 µg/mL (≈ 35.3 µM) with Krebszellen. Also, the IC50 in the experiment with Normale Zellen was 23.3 µg/mL (≈ 39 µM). Also, the “subG1 apoptotische Zellteilung Colo205” value with Colo205 Kolonkarzinom is reported as 3,3 ± 0,14. Further, the “subG1 apoptotische Zellteilung IEC6” value in experiment [5] is reported as 7.0 ± 0,14. For the same compound, in experiment [6], the “subG1 apoptotische Zellteilung Panc1” value was 37,7 ± 1,8.
